{
  "source": "patent US9029080B2",
  "about": "“Screening assay for insecticides” (priority 2008, dated 2015)",
  "target": "T1, ShaI/KChIP (Drosophila melanogaster, UniProt P17971)",
  "T1 construct": "expressed in transfected cells; subclone 18-13-20",
  "T1 sequence (P17971 with tags, fused parts or gaps isoform P17971-1)": "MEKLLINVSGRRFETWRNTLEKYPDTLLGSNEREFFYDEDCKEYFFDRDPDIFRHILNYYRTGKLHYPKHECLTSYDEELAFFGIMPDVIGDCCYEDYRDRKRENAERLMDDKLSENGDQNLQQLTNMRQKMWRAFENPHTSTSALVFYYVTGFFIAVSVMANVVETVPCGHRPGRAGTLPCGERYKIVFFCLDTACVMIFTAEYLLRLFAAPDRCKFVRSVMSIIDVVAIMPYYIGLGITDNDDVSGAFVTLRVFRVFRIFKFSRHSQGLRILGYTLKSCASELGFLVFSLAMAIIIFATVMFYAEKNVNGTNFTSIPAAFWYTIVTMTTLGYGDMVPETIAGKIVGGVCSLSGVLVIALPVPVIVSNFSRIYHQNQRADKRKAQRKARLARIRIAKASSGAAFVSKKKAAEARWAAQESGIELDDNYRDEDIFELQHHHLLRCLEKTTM",
  "test": "Whole-cell patch clamp on ShaI/KChIP 20 cells",
  "assay_type": "cell-based",
  "settings": "100 uM [final], incubation five minutes",
  "procedure": "Chinese hamster ovary (CHO) cells transfected with (a) a Drosophila ShaI gene (b) a Drosophila ShaI pore mutant gene and (c) a Drosophila ShaI+KChIP gene, and were used for all measurements. Cells were plated in 35 mm Petri dishes 2-6 hours before the experiment.\nData were acquired and analyzed using pClamp software (version 9.0.1.16). The whole-cell configuration of the patch-clamp technique was used to voltage clamp cells at room temperature (22-25° C.). Pipettes were pulled from borosilicate glass capillaries (#8250, Garner Glass, Claremont, Calif.) using a DMZ Universal Puller (Zeitz, Munich, Germany) and had resistances of 1-2 MOhm when filled with pipette solution and measured in bath solution. The liquid junction potential between bath and pipette solution was always compensated before the formation of a gigaohm seal.\nMembrane current was measured under whole-cell clamp, sampled at 2 kHz and filtered at 1 kHz by an Axoclamp 200B (Axon Instruments). […]\nTo study ShaI currents on CHO cells, cells were held at −70 mV and a family of 500 ms test voltage pulses was applied starting from −70 to +70 mV, or +100 mV, in 10 mV increments. The amplitude, as measured for the current-voltage relationship, was defined as the maximal current at a given membrane potential. […]\nFIG. 13: ShaI/KChIP inhibited by arachidonic acid. […] Pre- and post-compound currents were measured under whole-cell clamp. […]",
  "data": [
    {"molecule": "CCCCC/C=C\\C/C=C\\C/C=C\\C/C=C\\CCCC(=O)O", "note": "[arachidonic acid]", "values": [
      {"measurement": "inhibition of total ShaI/KChIP current", "value": "Complete inhibition"}
    ]}
  ]
}
